How the values were obtained:
[1] = system: anthrax; settings: monkey, in vivo; cited from earlier work

| Molecule | monkeys that survived a lethal aerosol challenge [1] | melting point [°C] |
| --- | --- | --- |
| O=C(O)c1cn(C2CC2)c2cc(N3CCNCC3)c(F)cc2c1=O [ciprofloxacin] | 8 of 9 | – |
| O=C(O)c1cccc(N(CCc2ccccc2)c2nnc(-c3cccc(Oc4cccc(C(F)(F)F)c4)c3)s2)c1 | – | 92 to 93 |
| penicillin | 7 of 10 | – |
| CC(C)CC(NCC(=O)NO)C(=O)NC(Cc1ccc2ccccc2c1)C(=O)NC(C)C(N)=O (stereo not shown) | – | 205 to 212 |
